Data published in patent publication US4820695A, “C-20-dihydro-deoxy-(cyclic amino)-derivatives of macrolide antibiotics” (priority 1987, dated 1989).
≈ marks a conversion by molar mass, not a printed value. Where two headings read alike, the source gives them in different places.

Key:
[1] = tested on: Staphyloccus aureus X1.1; experiment: MIC, standard agar-dilution assay (Table IX); type: cell-based, Staphylococcus aureus; settings: Staphylococcus aureus, read-out: MIC
[2] = tested on: Staphylococcus aureus V41; experiment: MIC, standard agar-dilution assay (Table IX); type: cell-based; settings: Staphylococcus aureus V41, Penicillin-resistant strain, read-out: MIC
[3] = tested on: Staphylococcus aureus X400; experiment: MIC, standard agar-dilution assay (Table IX); type: cell-based; settings: Staphylococcus aureus X400, Methicillin-resistant strain, read-out: MIC
[4] = tested on: Staphylococcus aureus S13E; experiment: MIC, standard agar-dilution assay (Table IX); type: cell-based; settings: Staphylococcus aureus, S13E
[5] = tested on: Staphylococcus epidermidis EPI1; experiment: MIC, standard agar-dilution assay (Table IX); type: cell-based; settings: Staphylococcus epidermidis EPI1; agar-dilution; read-out: MIC
[6] = tested on: Staphylococcus epidermidis 222; experiment: MIC, standard agar-dilution assay (Table IX); type: cell-based; settings: read-out: MIC
[7] = tested on: Streptococcus pyogenes C203; experiment: MIC, standard agar-dilution assay (Table IX); type: cell-based; settings: read-out: MIC
[8] = tested on: Streptococcus pneumoniae Park I; experiment: MIC, standard agar-dilution assay (Table IX); type: cell-based; settings: Streptococcus pneumoniae Park I; agar-dilution; read-out: MIC
[9] = tested on: Streptococcus Group D X66; experiment: MIC, standard agar-dilution assay (Table IX); type: cell-based; settings: read-out: MIC
[10] = tested on: Haemophilus influenzae C.L.; experiment: MIC, standard agar-dilution assay (Table IX); type: cell-based; settings: Ampicillin-sensitive strain, read-out: MIC
[11] = tested on: Haemophilus influenzae 76; experiment: MIC, standard agar-dilution assay (Table IX); type: cell-based; settings: Haemophilus influenzae 76, Ampicillin-resistant strain, read-out: MIC
[12] = tested on: Escherichia coli N10; experiment: MIC, standard agar-dilution assay (Table IX); type: cell-based; settings: read-out: MIC
[13] = tested on: Escherichia coli EC14; experiment: MIC, standard agar-dilution assay (Table IX); type: cell-based; settings: read-out: MIC
[14] = tested on: Escherichia coli TEM; experiment: MIC, standard agar-dilution assay (Table IX); type: cell-based; settings: read-out: MIC
[15] = tested on: Klebsiella X26; experiment: MIC, standard agar-dilution assay (Table IX); type: cell-based; settings: read-out: MIC
[16] = tested on: Group D strain 9960; experiment: MIC, standard agar-dilution assay (Table IX); type: cell-based, Streptococcus Group D; settings: tested using predecessor Group D strain 9960
[17] = tested on: Mycoplasma gallisepticum 29C; experiment: MIC, broth-dilution microtiter test (Table X); type: cell-based; settings: Mycoplasmoides gallisepticum, read-out: MIC
Source text: (§1) The MIC's in Table X were obtained using conventional broth-dilution microtiter tests.

[18] = tested on: Mycoplasma hyopneumoniae S5972; experiment: MIC, broth-dilution microtiter test (Table X); type: cell-based; settings: Mesomycoplasma hyopneumoniae, read-out: MIC
Source text: as §1

[19] = tested on: Mycoplasma hyorhinis 29E; experiment: MIC, broth-dilution microtiter test (Table X); type: cell-based; settings: read-out: MIC
Source text: as §1

[20] = tested on: Mycoplasma synoviae 40A; experiment: MIC, broth-dilution microtiter test (Table X); type: cell-based; settings: Mycoplasmopsis synoviae, read-out: MIC
Source text: as §1

[21] = tested on: Pasteurella hemolytica 22C; experiment: MIC, broth-dilution microtiter test (Table X); type: cell-based; settings: read-out: MIC
Source text: as §1

[22] = tested on: Pasteurella multocida 17E; experiment: MIC, broth-dilution microtiter test (Table X); type: cell-based; settings: Bovine isolate, read-out: MIC
Source text: as §1

[23] = tested on: Pasteurella multocida 60A; experiment: MIC, broth-dilution microtiter test (Table X); type: cell-based; settings: Avian isolate, read-out: MIC
Source text: as §1

[24] = tested on: Staphylococcus aureus; experiment: MIC, broth-dilution microtiter test (Table X); type: cell-based; settings: read-out: MIC
Source text: as §1

[25] = tested on: Streptococcus sp. 19F; experiment: MIC, broth-dilution microtiter test (Table X); type: cell-based; settings: read-out: MIC
Source text: as §1

[26] = tested on: Streptococcus pyogenes C203; experiment: ED50 in mice experimentally infected with S. pyogenes C203 (Table XI); type: in vivo; settings: Streptococcus pyogenes, doses given 1 and 4 hours postinfection, read-out: ED50
Method in brief: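 Mice infected with S. pyogenes C203 received two doses of compound, 1 and 4 h post-infection. ED50 is the dose in mg/kg (per dose, ×2) protecting 50% of animals.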

[27] = Titratable groups in 66% aqueous DMF (Tables XIV-XVI); type: physicochemical
Source text: ^c Run in 66% aqueous DMF
^d Run in 66% aqueous DMF

[28] = tested on: Staphylococcus aureus 19C; experiment: MIC, broth-dilution microtiter test (Table X); type: cell-based
Source text: as §1

[29] = tested on: Pasteurella multocida; experiment: Pasteurella infection in one-day-old chicks, medicated drinking water (Table XIII); type: in vivo; settings: Administered in the available drinking water at 2 g/gal
Method in brief: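 One-day-old chicks were challenged subcutaneously with 0.1 ml of a 10^-4 dilution of a 20-hour tryptose broth culture of avian P. multocida. Compound was given in drinking water at 2 g/gal, available from 4 to 20 hours before challenge and throughout the 3-day test period.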

[30] = tested on: Streptococcus Group D 2041; experiment: MIC, standard agar-dilution assay (Table IX); type: cell-based; settings: GROUPD2041, read-out: MIC

Structure (SMILES) | MIC [1] | MIC [2] | MIC [3] | MIC [4] | MIC [5] | MIC [6] | MIC [7] | MIC [8] | MIC [9] | MIC [10] | MIC [11] | MIC [12] | MIC [17] | MIC [18] | MIC [19] | MIC [20] | MIC [21] | MIC [22] | MIC [23] | MIC [25] | also measured
CCC1OC(=O)CC(O)C(C)C(OC2OC(C)C(O)C(N(C)C)C2O)C(CCN2CCCCCCC2)CC(C)C(=O)C=CC(C)=CC1COC1OC(C)C(O)C(OC)C1OC (stereo not drawn) [Compound D6] | 0.5 µg/mL (≈ 0.575 µM) | 0.5 µg/mL (≈ 0.575 µM) | 0.5 µg/mL (≈ 0.575 µM) | 0.5 µg/mL (≈ 0.575 µM) | 5 µg/mL (≈ 5.75 µM) | 0.25 µg/mL (≈ 0.288 µM) | 0.5 µg/mL (≈ 0.575 µM) | 0.5 µg/mL (≈ 0.575 µM) | 4 µg/mL (≈ 4.6 µM) | 16 µg/mL (≈ 18.4 µM) | 16 µg/mL (≈ 18.4 µM) | 64 µg/mL (≈ 73.6 µM) | 1.56 µg/mL (≈ 1.79 µM) | 1.56 µg/mL (≈ 1.79 µM) | 50 µg/mL (≈ 57.5 µM) | 0.78 µg/mL (≈ 0.897 µM) | 1.56 µg/mL (≈ 1.79 µM) | 3.12 µg/mL (≈ 3.59 µM) | 6.25 µg/mL (≈ 7.19 µM) | 0.78 µg/mL (≈ 0.897 µM) | MIC [13]: 64 µg/mL (≈ 73.6 µM); MIC [14]: 16 µg/mL (≈ 18.4 µM); MIC [15]: 16 µg/mL (≈ 18.4 µM); MIC [16]: 8 µg/mL (≈ 9.2 µM); MIC [24]: 0.78 µg/mL (≈ 0.897 µM); ED50 ([26]; C203, Oral): 14 mg/kg; ED50 ([26]; C203, sc, Subcutaneous): 0.7 mg/kg; Titratable groups [27]: 7.3; Titratable groups (first value) [27]: 5.4; pKa ([27]; Titratable groups): 9.4; pKa ([27]; Titratable groups (first value)): 7.9; pKa ([27]; Titratable groups (third printed value)): 9.2
CCC1OC(=O)CC(O)C(C)C(OC2OC(C)C(O)C(N(C)C)C2O)C(CCN2CC3CCC(C3)C2)CC(C)C(=O)C=CC(C)=CC1COC1OC(C)C(O)C(OC)C1OC (stereo not drawn) [Compound D46] | – | – | – | – | – | – | – | – | – | – | – | – | 0.195 µg/mL (≈ 0.225 µM) | 3.12 µg/mL (≈ 3.6 µM) | 25 µg/mL (≈ 28.8 µM) | 1.56 µg/mL (≈ 1.8 µM) | 6.25 µg/mL (≈ 7.21 µM) | 6.25 µg/mL (≈ 7.21 µM) | 12.5 µg/mL (≈ 14.4 µM) | 1.56 µg/mL (≈ 1.8 µM) | MIC [28]: 3.12 µg/mL (≈ 3.6 µM); Number of Deaths/Number Treated [29]: 3/10
CCC1OC(=O)CC(O)C(C)C(OC2OC(C)C(O)C(N(C)C)C2O)C(CCN2CCC3CCCCC3C2)CC(C)C(=O)C=CC(C)=CC1COC1OC(C)C(O)C(OC)C1OC (stereo not drawn) [Compound D29, 20-DH-DO-20-(decahydroisoquinolin-2-yl)desmycosin] | 0.5 µg/mL (≈ 0.559 µM) | 0.5 µg/mL (≈ 0.559 µM) | 0.5 µg/mL (≈ 0.559 µM) | 0.5 µg/mL (≈ 0.559 µM) | 0.5 µg/mL (≈ 0.559 µM) | 0.125 µg/mL (≈ 0.14 µM) | 0.5 µg/mL (≈ 0.559 µM) | 0.5 µg/mL (≈ 0.559 µM) | 2 µg/mL (≈ 2.23 µM) | 4 µg/mL (≈ 4.47 µM) | 4 µg/mL (≈ 4.47 µM) | 64 µg/mL (≈ 71.5 µM) | 0.195 µg/mL (≈ 0.218 µM) | 0.195 µg/mL (≈ 0.218 µM) | 6.25 µg/mL (≈ 6.98 µM) | < 0.048 µg/mL | 6.25 µg/mL (≈ 6.98 µM) | 3.12 µg/mL (≈ 3.49 µM) | 6.25 µg/mL (≈ 6.98 µM) | 1.56 µg/mL (≈ 1.74 µM) | MIC [30]: 8 µg/mL (≈ 8.94 µM); MIC [13]: 64 µg/mL (≈ 71.5 µM); MIC [14]: 16 µg/mL (≈ 17.9 µM); MIC [15]: 32 µg/mL (≈ 35.7 µM); MIC [28]: 1.56 µg/mL (≈ 1.74 µM); ED50 ([26]; C203, Oral): 10.3 mg/kg; ED50 ([26]; C203, sc, Subcutaneous): 1.56 mg/kg
CCC1OC(=O)CC(O)C(C)C(OC2OC(C)C(O)C(N(C)C)C2O)C(CCN2C(C)CCCC2C)CC(C)C(=O)C=CC(C)=CC1COC1OC(C)C(O)C(OC)C1OC (stereo not drawn) [Compound D41] | 8 µg/mL (≈ 9.2 µM) | 8 µg/mL (≈ 9.2 µM) | 8 µg/mL (≈ 9.2 µM) | 8 µg/mL (≈ 9.2 µM) | 8 µg/mL (≈ 9.2 µM) | 2 µg/mL (≈ 2.3 µM) | 1 µg/mL (≈ 1.15 µM) | 1 µg/mL (≈ 1.15 µM) | 32 µg/mL (≈ 36.8 µM) | 64 µg/mL (≈ 73.6 µM) | 64 µg/mL (≈ 73.6 µM) | > 128 µg/mL | 6.25 µg/mL (≈ 7.19 µM) | 3.12 µg/mL (≈ 3.59 µM) | 50 µg/mL (≈ 57.5 µM) | 1.56 µg/mL (≈ 1.79 µM) | > 50 µg/mL | 25 µg/mL (≈ 28.8 µM) | 50 µg/mL (≈ 57.5 µM) | 6.25 µg/mL (≈ 7.19 µM) | MIC [30]: 32 µg/mL (≈ 36.8 µM); MIC [13]: > 128 µg/mL; MIC [14]: > 128 µg/mL; MIC [15]: 128 µg/mL (≈ 147 µM); MIC [28]: 6.25 µg/mL (≈ 7.19 µM); ED50 ([26]; C203, Oral): > 100 mg/kg; ED50 ([26]; C203, sc, Subcutaneous): 2.04 mg/kg
